Test results reported in paper PMC10751773 (JACS Au, 2023).

Experiments:
piscidin 1 (P1) = piscidin 1 (P1) (Morone saxatilis, UniProt Q8UUG0); assay: circular dichroism titration at […] nm, one-site two-state fit; type: binding
piscidin 3 (P3) = piscidin 3 (P3) (Morone chrysops x Morone saxatilis, UniProt P0C006); assay: as above; type: binding
Sequence of piscidin 3 (P3) (P0C006 whole entry): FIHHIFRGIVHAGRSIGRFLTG

Sequence of piscidin 1 (P1) (Q8UUG0 23-44): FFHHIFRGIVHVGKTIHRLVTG

Kd (piscidin 1 (P1)): 206 ± 5 µM
Kd (piscidin 3 (P3)): 391.5 ± 1.5 µM
SMILES: CCCCCCOC(=O)CCCCCCC/C=C\CCCCCC[C@H](C)O[C@@H]1O[C@H](CO)[C@@H](O)[C@H](O)[C@H]1O[C@@H]1O[C@H](CO)[C@@H](O)[C@H](O)[C@H]1O [SL-HE]
